Measured values taken from patent US10457709B2, “Antimicrobial peptides, their variants and uses” (priority 2015, dated 2019).
Ends that are not written are not given here.

B1: En-MAP1: protein of 549 amino acids from an endophyte of Empetrum nigrum, GenBank accession number KC466596 (protein, listed as Empetrum nigrum)
chain: MRLVAHPVPDAPLYALMIKACSMGIPQPNDNLWKPRNPLLAKEEKTSKRGRTAPDTERALDLFREMTLRYNIRPTAEVYTAIIAACVKRDDMYDKGFGLFKKMVELERNRMSSEGHDSTSFAPTRATYNALLRGCARNKDLLRARWILAEMLRTAQAKWQEFMEKSKKGEEGVQEWELLEVEEMRPDTNTMAFLFYTYASHTTSSKAVPETEGKKELEGKAEERASEVTSVSPVSEPPEPMDESKLVYSLPTSSQAILREVTSLLDRIKSDQGQQSNLLSSVQINSKLLNSYIAVLSAHCRSSQVVERISEVVVGTKENPKSLFEETGTSVNGYTCFTVIDACGMMEHSPDTYHLACEMWQRWLSLVENATFHRENPLKAKEIGLDSRTISDCWSAMIRLHAKYNQVDEAMKLVHEFARLYPPASLFNSLTFEPSSTSSSSLSPRKGVQEISPLFSSTSLTHSIRGRDISRIQNTMSQDPTLQFRAVQILHLRLVELETRPKDLAYLSWLLKSYEHQLQPKRPKSLQGDLFTSRQAAYNRIVQQRTSSR

Legend:
[1] = tested on: Pseudomonas aeruginosa (ATCC 27853); test: microbe, parasite or virus in culture; assay type: cell-based; details: ATCC 27853
Procedure: (§1) Minimum inhibition concentrations (MICs) were determined against Escherichia coli (ATCC 25922), Staphylococcus aureus (ATCC 25923), Klebsiella pneumoniae (ATCC 10031) and Pseudomonas aeruginosa (ATCC 27853). Also clinical strains of E. coli, K. pneumoniae, E. cloacae, P. aeruginosa, Serratia marcescens, Proteus mirabilis, S. pneumoniae, Acinetobacter baumannii, A. johnsonii and S. aureus were used for MICs assays. Additionally, clinical strains of yeast including Candida albicans, C. glabrata, C. parapsilosis and C. quillermondiae were used. The susceptibility of these microorganisms to Chain peptides were determined using micro broth dilution assay. Colonies of the respective microorganism from Muller Hinton (MH) agar plates incubated overnight were suspended in MH broth media and final concentration of microorganism was adjusted to 5.0×10^5 cfu/ml. An aliquot of 10 μl of each Chain peptide, or gentamicin, tetracycline as reference antibiotics were added in differing concentrations along with 90 μl of bacterial suspension to 96 well polypropylene plates and incubated at 37° C. for 20 to 24 hours. Concentrations of Chain peptides and reference antibiotics ranged from 0.125 to 128 μg/ml and the MICs were recorded as the lowest concentration with no visual growth of bacteria. Similarly, antifungal MICs were tested in Potato dextrose broth.

[2] = tested on: Klebsiella pneumoniae (ATCC 10031); test: microbe, parasite or virus in culture; assay type: cell-based; details: ATCC 10031
Procedure: as §1

[3] = tested on: Staphylococcus aureus (ATCC 25923); test: microbe, parasite or virus in culture; assay type: cell-based; details: ATCC 25923
Procedure: as §1

[4] = tested on: Escherichia coli (ATCC 25922); test: microbe, parasite or virus in culture; assay type: cell-based; details: ATCC 25922
Procedure: as §1

E. coli = details: ATCC 25922
Procedure: as §1

S. aureus [5] = details: ATCC 25923
Procedure: as §1

S. aureus [6] = test: Antibacterial activity analysis of En-MAP1 protein; assay type: cell-based, Staphylococcus aureus
Procedure: Both folded and unfolded proteins were tested for antibacterial activity against S. aureus by pipetting 10 μg of protein on the S. aureus culture on an LB plate. The activity was also tested in folded and unfolded protein digested with trypsin in 0.01% acetic acid at concentrations of 30 and 60 μg/ml.
The gene En-MAP1 was then cloned into the expression plasmid pET23(b) to analyze whether the antibacterial activity was due to the protein itself. The resulting construct pET23(b)-FosS1A contained the En-MAP1 gene in-frame. When transformed into E. coli expression strain BL21 (DE3) pLyseS and BL21 (DE3) pRARE, a protein of approximately 63 kDa (predicted mass 63.3 kDa) was produced in the cell extracts of induced, but not in the uninduced cultures. The resulting protein includes the amino acid sequence […]- prior to the first amino acid of the protein sequence. The protein was expressed in both strains as inclusion bodies and they were purified and folded in a His-Trap column, resulting in about ˜1 mg of pure folded protein.

Row | Molecule | Minimum inhibitory concentration, Pseudomonas aeruginosa (ATCC 27853) [1] | Minimum inhibitory concentration, Klebsiella pneumoniae (ATCC 10031) [2] | Minimum inhibitory concentration, Staphylococcus aureus (ATCC 25923) [3] | Minimum inhibitory concentration, Escherichia coli (ATCC 25922) [4] | Minimal inhibitory concentration (MIC), E. coli (E. coli) | Minimal inhibitory concentration (MIC), S. aureus (S. aureus [5]) | Antibacterial activity against S. aureus (S. aureus [6]; expressed, folded protein) | Antibacterial activity against S. aureus after trypsin digestion (S. aureus [6]; folded full protein digested with trypsin, data not shown) | Antibacterial activity against S. aureus after trypsin digestion (S. aureus [6]; trypsin digest of the unfolded protein)
1 | NRIVQQRTSSR [Chain200] | >128 µg/mL | >128 µg/mL | >128 µg/mL | >128 µg/mL | 95 µM | 95 µM |  |  | 
2 | B1 |  |  |  |  |  |  | no activity was observed | antibacterial activity was observed | No activity was detected
